# Assay results from paper PMC4019636, “Rational Design of Berberine-Based FtsZ Inhibitors with Broad-Spectrum Antibacterial Activity” (PLoS ONE, 2014).
# Tested on: B. subtilis strain 168 cells
# Assay: Bacterial morphology and membrane staining studies
# Format: cell-based
# Settings: 4 µM compound
# Protocol: The B. subtilis strain 168 cells were grown in LB medium. The cultures at an A600 of 0.01 from an overnight culture were inoculated in the same medium containing different concentrations of the test compounds and grown at 37°C for 4 h. The cells for morphology studies were harvested and resuspended in 100 µL of PBS (phosphate buffered saline) buffer containing 0.25% agarose. For membrane staining, the B. subtilis cells were further incubated with 1.6 µM of FM 4–64 for an additional 30 min at 37°C without shaking before harvested and resuspended in 100 µL PBS buffer containing 0.25% agarose. 10 µL of the suspension mixture were then placed on a microscopic slide pretreated with 0.1% (w/v) poly-L-lysine and the morphology of the bacterial cells was observed under a phase-contrast optical microscope at 40× magnification. The images were captured using an Olympus Bio Imaging Navigator FSX 100 microscope.
smiles,measurement,setting,value
COc1ccc2cc3[n+](cc2c1OCCCOc1ccc(Cl)cc1)CCc1cc2c(cc1-3)OCO2 [Compound 2],cell length of B. subtilis,"4 h at 37°C, compared to untreated cells",significantly increased
same,perturbation of the cell membrane (FM 4-64 staining),"B. subtilis 168, compared to untreated cells",did not induce any detectable perturbation
